Data as given in ChEMBL document CHEMBL5512674, “Novel Acyl Thiourea-Based Hydrophobic Tagging Degraders Exert Potent Anti-Influenza Activity through Two Distinct Endonuclease Polymerase Acidic-Targeted Degradation Pathways” (J Med Chem, 2024).
The source made the active and inactive calls. No cut-off for these calls is given here.

Columns and labels:
[1] = Cytotoxicity against dog MDCK cells assessed as reduction in cell viability incubated for 48 hrs by CCK-8 assay; type: toxicity, cell-based, Canis lupus familiaris
[2] = test system: Influenza A virus; assay: Anti-influenza activity against Influenza A virus A/WSN/33(H1N1) infected in MDCK cells assessed as downregulation of nucleoprotein expression at 100 nM incubated for 24 hrs by Western blotting analysis relative to control; type: functional
[3] = Stability in human plasma assessed as compound remaining measured after 30 mins by LC-MS/MS analysis; type: ADME, cell-free; conditions: 0.5 h, BLD = below limit of detection
[4] = Stability in human plasma assessed as compound remaining measured after 60 mins by LC-MS/MS analysis; type: ADME, cell-free; conditions: read-out: Stability
[5] = Stability in human plasma assessed as compound remaining measured after 120 mins by LC-MS/MS analysis; type: ADME, cell-free; conditions: 2 h, BLD = below limit of detection
[6] = Stability in human plasma assessed as compound remaining measured after 15 mins by LC-MS/MS analysis; type: ADME, cell-free; conditions: 0.25 h, BLD = below limit of detection
[7] = Stability in human plasma assessed as compound remaining by LC-MS/MS analysis; type: ADME, cell-free
[8] = Stability in human plasma assessed as compound remaining measured after 5 mins by LC-MS/MS analysis; type: ADME, cell-free; conditions: read-out: Stability
[9] = Half life in human plasma by LC-MS/MS analysis; type: ADME, cell-free
[10] = test system: Influenza A virus; assay: Anti-influenza activity against Influenza A virus A/WSN/33(H1N1) infected in HEK293T cells assessed as reduction in virus-induced cytopathic effect incubated for 48 hrs by CCK-8 assay; type: functional, organism-based; conditions: HEK-293T
[11] = target: T1, von Hippel-Lindau disease tumor suppressor/Polymerase acidic protein (Influenza A virus (A/Puerto Rico/8/1934(H1N1))) (UniProt P03433+P40337); assay: PROTAC activity at Influenza A virus A/WSN/33(H1N1) flag tagged Polymerase acidic protein/VHL (unknown origin) expressed in HEK293T cells assessed as degradation of PA expression at 10 uM incubated for 16 hrs by Western blotting analysis; type: cell-based
[12] = target: T1, von Hippel-Lindau disease tumor suppressor/Polymerase acidic protein (Influenza A virus (A/Puerto Rico/8/1934(H1N1))); assay: PROTAC activity at Influenza A virus A/WSN/33(H1N1) flag tagged Polymerase acidic protein/VHL (unknown origin) expressed in HEK293T cells assessed as degradation of PA expression at 5 uM incubated for 24 hrs by Western blotting analysis; type: cell-based
[13] = test system: Influenza B virus; assay: Anti-influenza activity against Influenza B virus Victoria/2/87 infected in HEK293T cells assessed as reduction in virus-induced cytopathic effect incubated for 48 hrs by CCK-8 assay; type: functional, organism-based; conditions: Victoria/2/87, HEK-293T
[14] = test system: Influenza A virus; assay: Anti-influenza activity against Influenza A virus A/WSN/33(H1N1) infected in MDCK cells assessed as downregulation of nucleoprotein expression at 1.56 to 100 nM incubated for 24 hrs by Western blotting analysis; type: functional, organism-based; conditions: dose 1.56-100 nM
[15] = Cytotoxicity against human HEK293T cells assessed as reduction in cell viability incubated for 48 hrs by CCK-8 assay; type: toxicity, cell-based, HEK-293T
[16] = test system: Influenza A virus; assay: Anti-influenza activity against Influenza A virus A/PR/8/34 (H1N1) infected in MDCK cells assessed as inhibition of viral growth at 0.8 nM incubated for 48 hrs by luciferase assay relative to control; type: functional
[17] = test system: Influenza A virus; assay: Anti-influenza activity against Influenza A virus A/PR/8/34 (H1N1) infected in MDCK cells assessed as inhibition of viral growth incubated for 48 hrs by luciferase assay; type: functional, organism-based
[18] = Selectivity index, ratio of CC50 for cytotoxicity against human HEK293T cells to EC50 for anti-influenza activity against Influenza A virus A/WSN/33(H1N1) infected in HEK293T cells assessed as reduction in virus-induced cytopathic effect; type: toxicity, cell-based; conditions: read-out: Ratio CC50/EC50
[19] = test system: Influenza A virus; assay: Anti-influenza activity against Influenza A virus H3N2 infected in HEK293T cells assessed as reduction in virus-induced cytopathic effect incubated for 48 hrs by CCK-8 assay; type: functional, organism-based; conditions: H3N2, HEK-293T
[20] = test system: Influenza B virus; assay: Anti-influenza activity against Influenza B virus Yamagata/16/88 infected in HEK293T cells assessed as reduction in virus-induced cytopathic effect incubated for 48 hrs by CCK-8 assay; type: functional, organism-based; conditions: Yamagata/16/88, HEK-293T
[21] = target: T2, von Hippel-Lindau disease tumor suppressor/Polymerase basic protein 1 (Influenza A virus (strain A/Puerto Rico/8/1934 H1N1)) (UniProt P03431+P40337); assay: PROTAC activity at Influenza A virus A/WSN/33(H1N1) flag tagged Polymerase basic protein 1/VHL (unknown origin) expressed in HEK293T cells assessed as degradation of PB1 expression at 10 ug/ml incubated for 24 hrs by Western blotting analysis; type: cell-based; conditions: dose 10.0 µg/ml
[22] = target: T3, von Hippel-Lindau disease tumor suppressor/Polymerase basic protein 2 (Influenza A virus (strain A/Puerto Rico/8/1934 H1N1)) (UniProt P40337+P03428); assay: PROTAC activity at Influenza A virus A/WSN/33(H1N1) flag tagged Polymerase basic protein 2/VHL (unknown origin) expressed in HEK293T cells assessed as degradation of PB2 expression at 10 ug/ml incubated for 24 hrs by Western blotting analysis; type: cell-based; conditions: dose 10.0 µg/ml
[23] = target: T3, von Hippel-Lindau disease tumor suppressor/Polymerase basic protein 2 (Influenza A virus (strain A/Puerto Rico/8/1934 H1N1)); assay: PROTAC activity at Influenza A virus A/WSN/33(H1N1) flag tagged Polymerase basic protein 2/VHL (unknown origin) expressed in HEK293T cells assessed as degradation of PB2 expression at 0.1 to 10 uM incubated for 24 hrs by Western blotting analysis; type: cell-based; conditions: dose 0.1-10 µM
[24] = target: T1, von Hippel-Lindau disease tumor suppressor/Polymerase acidic protein (Influenza A virus (A/Puerto Rico/8/1934(H1N1))); assay: PROTAC activity at Influenza A virus A/WSN/33(H1N1) flag tagged Polymerase acidic protein/VHL (unknown origin) expressed in HEK293T cells assessed as degradation of PA expression at 10 uM incubated for 24 hrs by Western blotting analysis; type: cell-based
[25] = target: von Hippel-Lindau disease tumor suppressor/Polymerase acidic protein (Influenza A virus (A/Puerto Rico/8/1934(H1N1)), UniProt P03433+P40337); assay: PROTAC activity at Influenza A virus A/WSN/33(H1N1) flag tagged Polymerase acidic protein/VHL (unknown origin) expressed in HEK293T cells assessed as degradation of PA expression incubated for 24 hrs by Western blotting analysis; type: cell-based
[26] = target: T2, von Hippel-Lindau disease tumor suppressor/Polymerase basic protein 1 (Influenza A virus (strain A/Puerto Rico/8/1934 H1N1)); assay: PROTAC activity at Influenza A virus A/WSN/33(H1N1) flag tagged Polymerase basic protein 1/VHL (unknown origin) expressed in HEK293T cells assessed as degradation of PB1 expression at 1 ug/ml incubated for 24 hrs by Western blotting analysis; type: cell-based; conditions: dose 1.0 µg/ml
[27] = target: T3, von Hippel-Lindau disease tumor suppressor/Polymerase basic protein 2 (Influenza A virus (strain A/Puerto Rico/8/1934 H1N1)); assay: PROTAC activity at Influenza A virus A/WSN/33(H1N1) flag tagged Polymerase basic protein 2/VHL (unknown origin) expressed in HEK293T cells assessed as degradation of PB2 expression at 1 ug/ml incubated for 24 hrs by Western blotting analysis; type: cell-based; conditions: dose 1.0 µg/ml
[28] = target: T2, von Hippel-Lindau disease tumor suppressor/Polymerase basic protein 1 (Influenza A virus (strain A/Puerto Rico/8/1934 H1N1)); assay: PROTAC activity at Influenza A virus A/WSN/33(H1N1) flag tagged Polymerase basic protein 1/VHL (unknown origin) expressed in HEK293T cells assessed as degradation of PB1 expression at 0.1 to 10 uM incubated for 24 hrs by Western blotting analysis; type: cell-based; conditions: dose 0.1-10 µM
[29] = Hepatic extraction ratio in human liver microsomes preincubated for 5 mins followed by NADPH addition and measured for 45 mins by LC-MS analysis; type: ADME, Microsome; conditions: time 50 min, read-out: ERH
[30] = Hepatic extraction ratio in dog liver microsomes preincubated for 5 mins followed by NADPH addition and measured for 45 mins by LC-MS analysis; type: ADME, Canis lupus familiaris, Microsome; conditions: time 50 min, read-out: ERH
[31] = Hepatic extraction ratio in mouse liver microsomes preincubated for 5 mins followed by NADPH addition and measured for 45 mins by LC-MS analysis; type: ADME, Microsome; conditions: time 50 min, read-out: ERH
[32] = target: T4, Protein cereblon/Androgen receptor (Homo sapiens) (UniProt P10275+Q96SW2); assay: PROTAC activity at Influenza A virus A/WSN/33(H1N1) flag tagged Polymerase acidic protein/CRBN (unknown origin) expressed in HEK293T cells assessed as degradation of PA expression at 5 uM incubated for 24 hrs by Western blotting analysis; type: cell-based
[33] = target: T4, Protein cereblon/Androgen receptor (Homo sapiens); assay: PROTAC activity at Influenza A virus A/WSN/33(H1N1) flag tagged Polymerase acidic protein/CRBN (unknown origin) expressed in HEK293T cells assessed as degradation of PA expression at 10 uM incubated for 16 hrs by Western blotting analysis; type: cell-based
[34] = test system: Influenza A virus; assay: Anti-influenza activity against Influenza A virus A/PR/8/34 (H1N1) infected in MDCK cells assessed as inhibition of viral growth at 100 uM incubated for 48 hrs by luciferase assay relative to control; type: functional

T3 sequence (P03428 whole entry, looked up): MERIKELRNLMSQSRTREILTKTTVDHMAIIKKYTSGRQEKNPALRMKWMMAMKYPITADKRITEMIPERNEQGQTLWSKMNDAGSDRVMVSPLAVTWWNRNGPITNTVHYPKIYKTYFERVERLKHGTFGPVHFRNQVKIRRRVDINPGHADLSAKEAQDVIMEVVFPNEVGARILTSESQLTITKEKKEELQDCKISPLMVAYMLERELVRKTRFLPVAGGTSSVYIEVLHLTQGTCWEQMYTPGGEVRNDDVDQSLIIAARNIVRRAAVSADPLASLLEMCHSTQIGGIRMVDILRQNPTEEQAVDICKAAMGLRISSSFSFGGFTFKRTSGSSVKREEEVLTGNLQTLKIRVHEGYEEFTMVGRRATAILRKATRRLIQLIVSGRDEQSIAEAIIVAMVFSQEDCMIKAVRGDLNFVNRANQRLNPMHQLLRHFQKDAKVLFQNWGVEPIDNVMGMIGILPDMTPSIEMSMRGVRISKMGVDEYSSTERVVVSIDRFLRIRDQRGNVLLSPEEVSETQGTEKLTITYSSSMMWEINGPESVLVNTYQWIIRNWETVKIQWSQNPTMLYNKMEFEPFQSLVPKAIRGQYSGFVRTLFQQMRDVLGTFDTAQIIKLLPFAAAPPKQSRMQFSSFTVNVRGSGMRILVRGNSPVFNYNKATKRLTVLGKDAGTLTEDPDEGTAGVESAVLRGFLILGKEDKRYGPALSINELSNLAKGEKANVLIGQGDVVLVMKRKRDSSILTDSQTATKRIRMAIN
T3 sequence (P40337 whole entry, looked up): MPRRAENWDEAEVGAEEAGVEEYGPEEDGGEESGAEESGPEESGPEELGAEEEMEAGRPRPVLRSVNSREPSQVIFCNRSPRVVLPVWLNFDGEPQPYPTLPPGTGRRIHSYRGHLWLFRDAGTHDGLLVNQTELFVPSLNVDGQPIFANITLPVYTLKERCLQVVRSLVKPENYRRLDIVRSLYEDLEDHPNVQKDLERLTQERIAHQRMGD
T2 sequence (P03431 whole entry, looked up): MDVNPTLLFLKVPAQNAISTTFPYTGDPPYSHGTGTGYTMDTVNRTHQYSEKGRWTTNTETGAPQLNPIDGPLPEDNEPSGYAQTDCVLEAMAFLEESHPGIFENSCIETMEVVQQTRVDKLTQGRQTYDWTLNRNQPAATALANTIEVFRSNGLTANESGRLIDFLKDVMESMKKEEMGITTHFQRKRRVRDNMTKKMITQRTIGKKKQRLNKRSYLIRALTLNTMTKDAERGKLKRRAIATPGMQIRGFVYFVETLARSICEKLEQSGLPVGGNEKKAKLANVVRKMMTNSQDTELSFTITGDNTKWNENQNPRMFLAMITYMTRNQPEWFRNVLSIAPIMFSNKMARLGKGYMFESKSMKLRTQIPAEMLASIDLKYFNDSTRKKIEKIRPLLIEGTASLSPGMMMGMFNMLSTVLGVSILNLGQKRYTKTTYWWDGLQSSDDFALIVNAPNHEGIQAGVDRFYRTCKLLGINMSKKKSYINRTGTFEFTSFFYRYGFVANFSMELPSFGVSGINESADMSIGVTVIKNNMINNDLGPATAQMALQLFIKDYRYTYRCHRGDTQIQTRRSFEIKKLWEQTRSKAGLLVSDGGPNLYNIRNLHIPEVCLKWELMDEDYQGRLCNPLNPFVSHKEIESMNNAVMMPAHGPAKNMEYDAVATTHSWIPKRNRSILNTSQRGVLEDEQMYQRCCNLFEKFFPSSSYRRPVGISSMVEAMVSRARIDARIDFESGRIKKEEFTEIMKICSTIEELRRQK
T2 sequence (P40337 whole entry, looked up): as the sequence (P40337 whole entry, looked up) above
T4 sequence (P10275 whole entry, looked up): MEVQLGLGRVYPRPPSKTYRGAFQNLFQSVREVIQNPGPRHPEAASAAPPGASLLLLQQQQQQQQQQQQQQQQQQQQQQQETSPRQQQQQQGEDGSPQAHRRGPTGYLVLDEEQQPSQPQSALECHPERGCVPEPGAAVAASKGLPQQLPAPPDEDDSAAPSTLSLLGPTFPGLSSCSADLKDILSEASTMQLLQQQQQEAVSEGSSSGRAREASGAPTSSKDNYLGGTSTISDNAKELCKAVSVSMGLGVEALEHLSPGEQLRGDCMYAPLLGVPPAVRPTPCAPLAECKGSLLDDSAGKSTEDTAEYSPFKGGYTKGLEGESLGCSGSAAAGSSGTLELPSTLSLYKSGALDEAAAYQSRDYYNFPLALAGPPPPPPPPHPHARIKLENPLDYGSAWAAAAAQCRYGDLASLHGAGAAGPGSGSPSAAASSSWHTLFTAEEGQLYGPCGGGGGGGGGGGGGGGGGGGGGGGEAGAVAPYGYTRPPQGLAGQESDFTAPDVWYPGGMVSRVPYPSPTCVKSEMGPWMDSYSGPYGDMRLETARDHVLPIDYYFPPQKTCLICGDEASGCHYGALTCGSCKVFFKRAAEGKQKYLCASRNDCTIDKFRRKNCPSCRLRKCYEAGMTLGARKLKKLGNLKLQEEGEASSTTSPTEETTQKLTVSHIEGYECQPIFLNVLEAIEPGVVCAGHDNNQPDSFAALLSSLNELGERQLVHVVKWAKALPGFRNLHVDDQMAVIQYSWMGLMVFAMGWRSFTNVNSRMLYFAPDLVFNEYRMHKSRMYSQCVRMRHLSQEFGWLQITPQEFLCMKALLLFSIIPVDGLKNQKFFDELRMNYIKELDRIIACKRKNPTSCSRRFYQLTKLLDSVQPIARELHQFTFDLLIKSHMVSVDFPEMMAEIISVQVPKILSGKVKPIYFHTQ
T4 sequence (Q96SW2 whole entry, looked up): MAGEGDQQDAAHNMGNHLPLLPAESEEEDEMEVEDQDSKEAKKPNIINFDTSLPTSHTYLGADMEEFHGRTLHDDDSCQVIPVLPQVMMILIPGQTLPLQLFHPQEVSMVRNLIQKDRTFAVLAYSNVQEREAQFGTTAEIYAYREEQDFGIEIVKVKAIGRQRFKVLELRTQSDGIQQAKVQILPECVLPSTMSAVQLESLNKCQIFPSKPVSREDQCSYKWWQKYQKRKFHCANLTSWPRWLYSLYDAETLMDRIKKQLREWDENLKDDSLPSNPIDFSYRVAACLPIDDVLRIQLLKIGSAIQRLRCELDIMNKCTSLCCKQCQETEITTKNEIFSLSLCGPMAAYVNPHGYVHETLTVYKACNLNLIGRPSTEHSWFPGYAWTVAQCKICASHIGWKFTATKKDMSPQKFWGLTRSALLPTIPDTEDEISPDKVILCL

CCOC(=O)C1=C[C@@H](OC(CC)CC)[C@H](NC(C)=O)[C@@H](N)C1 [OSELTAMIVIR]
CC50 at 48 h [1]: > 200 µM | Activity [2]: 44%

CCN(CC)CCOC(=O)c1ccc(N)cc1 [PROCAINE]
Stability [3]: Bld | remaining at 1 h [4]: 0.1% | Stability [5]: Bld | Stability [6]: Bld | Stability [7]: 100% | remaining at 5 min [8]: 4.49% | half-life [9]: 1.12 min

Cc1ncsc1-c1ccc(CNC(=O)[C@@H]2C[C@@H](O)CN2C(=O)C(NCCCCCCCC(=O)Nc2ccc(NC(=S)NC(=O)c3ccc(C(C)(C)C)cc3)cc2)C(C)(C)C)cc1 (mixture of isomers)
EC50 [10]: > 10000 nM | Activity [11]: Active | Activity [12]: Active

O=C1c2c(O)c(=O)ccn2N([C@@H]2c3ccccc3SCc3c2ccc(F)c3F)[C@@H]2COCCN12 [BALOXAVIR]
EC50 [13]: 6 nM | Activity [14]: Active | CC50 at 48 h [1]: 30.9 µM | EC50 [10]: 4 nM | CC50 at 48 h [15]: 63.1 µM | inhibition at 0.0008 µM [16]: 21% | IC50 [17]: 1.49 nM | selectivity ratio [18]: 16600 | EC50 [19]: 5 nM | EC50 [20]: 71 nM

CC(C)(C)OC(=O)NCCCC[C@H](NC(=O)OC(C)(C)C)C(=O)NCCCCCCCCC(=O)Nc1ccc(NC(=S)NC(=O)c2ccc(C(C)(C)C)cc2)cc1
Activity [21]: inactive | EC50 [13]: 167 nM | Activity [22]: inactive | Activity [23]: inactive | Activity [24]: Active | DC50 [25]: 650 nM | EC50 [10]: 21 nM | CC50 at 48 h [15]: > 100 µM | Activity [26]: inactive | selectivity ratio [18]: > 4760 | Activity [27]: inactive | EC50 [19]: > 10000 nM | EC50 [20]: 130 nM | Activity [28]: inactive

O=C(c1ccc(F)cc1)C1CCN(CCn2c(=O)[nH]c3ccccc3c2=O)CC1 [KETANSERIN]
hepatic extraction ratio at 0.75 h [29]: 0.693 | hepatic extraction ratio at 0.75 h [30]: 0.697 | hepatic extraction ratio at 0.75 h [31]: 0.765

CC(C)(C)c1ccc(C(=O)NC(=S)Nc2ccc(NC(=O)CCCCCCCNc3cccc4c3CN(C3CCC(=O)NC3=O)C4=O)cc2)cc1 (stereo unspecified)
Activity [32]: Active | Activity [33]: Active | EC50 [10]: > 10000 nM

NC12CC3CC(CC(C3)C1)C2 [AMANTADINE]
inhibition at 100 µM [34]: 62.3% | EC50 [10]: 1790 nM | CC50 at 48 h [15]: > 100 µM | selectivity ratio [18]: > 55.9
